Values of other authors in patent US10029020B2, “Fullerene compositions” (UNIVERSITEIT GENT, priority 2015, dated 2018).

What was measured:
rats = conditions: regular administration; Moussa et al., Biomaterials 2012

water solubility: 10^−8 ng/L
SMILES: c12c3c4c5c1c1c6c7c2c2c8c3c3c9c4c4c%10c5c5c1c1c6c6c%11c7c2c2c7c8c3c3c8c9c4c4c9c%10c5c5c1c1c6c6c%11c2c2c7c3c3c8c4c4c9c5c1c1c6c2c3c41 [Polymer C60, buckminsterfullerene (C60)]
lifespan of rats (rats): doubled
